US8530478B2, “Piperazine derivatives used as CAV2.2 calcium channel modulators” (Convergence Pharmaceuticals Limited, priority 2008, dated 2013)
Counter-ions that a name gives are not always drawn.

Target: T1, hCav2.2 (Homo sapiens, UniProt Q00975)
T1 construct: expressed in transfected cells; plasmids pCIN5-hCav2.2, pCIH-hCav β3, pCIP-α2δ1
Experiment: hCav2.2 assay (IonWorks planar array electrophysiology, HEK293 stable cell line)
Format: cell-based
Settings: inhibition of current elicited by the 1st depolarising pulse; HEK293 cells expressing human Cav2.2 α/β3/α2δ1; tested in the form described in the Examples; read-out: mean pIC50 (tonic pIC50) (converted)
Description: Compounds of the invention may be tested for in vitro biological activity in the hCav2.2 assay in accordance with the following studies:
Stable cell lines expressing the human Cav2.2 α (α1B) subunit, along with the human β3 and α2δ1 auxiliary subunits were created following sequential transfection and selection of human embryonic kidney (HEK293) cells. HEK293 cells were cultured in Dulbecco's modified Eagles media/F12 media (Invitrogen, Cat # 041-95750V) containing 10% foetal bovine serum, with added L-glutamine (2 mM; Invitrogen, Cat # 25030-024) and non-essential amino acids (5%; Invitrogen, Cat # 11140-035). Initially HEK293 cells were transfected with two plasmid vectors for expression of the hCav2.2 α subunit (pCIN5-hCav2.2 which carries a neomycin resistance marker) and the hCav β3 subunit (pCIH-hCav β3 which carries a hygromycin resistance marker). Clonal cell lines were isolated following selection in media supplemented with 0.4 mg ml^−1 Geneticin G418 (Invitrogen, Cat # 10131-027) and 0.1 mg ml^−1 hygromycin (Invitrogen, Cat # 10687-010). These clonal cell lines were assessed for Cav2.2 α/β3-mediated current expression using the IonWorks planar array electrophysiology technology (described below). A clonal line was identified that gave a reasonable level of functional Cav2.2 α/β3 current expression. This cell line was transfected with a plasmid vector for expression of the human α2δ1 subunit (pCIP-α2δ1 which carries a puromycin resistance marker) and clonal cell lines isolated following selection in media containing 0.62 μg ml^−1 puromycin (Sigma, Cat # P-7255), in addition to 0.4 mg ml^−1 Geneticin G418 and 0.1 mg ml^−1 hygromycin. Several cell lines were identified that gave robust levels of Cav2.2 α/β3/α2δ1-mediated current expression and one of these was selected for compound profiling. Expression of all three subunits within this cell line was continuously maintained by the inclusion of G418 (0.4 mg ml^−1), hygromycin (0.1 mg ml^−1) and puromycin (0.62 μg ml^−1). Cells were maintained at 37° C. in a humidified environment containing 5% CO2 in air. Cells were liberated from the T175 culture flasks for passage and harvesting using TrpLE (Invitrogen, Cat # 12604-013).
Cells were grown to 30-60% confluence in T175 flasks and maintained at 30° C. for 24 hrs prior to recording. Cells were lifted by removing the growth media, washing with Ca^2+ free PBS (Invitrogen, Cat #14190-094) and incubating with 3 ml of warmed (37° C.) TrpLE (Invitrogen, Cat # 12604-013) for 6 minutes. Lifted cells were suspended in 10 ml of extracellular buffer. Cell suspension was then placed into a 15 ml tube and centrifuged for 2 minutes at 700 rpm. After centrifugation, the supernatant was removed and the cell pellet was resuspended in 4.5 ml of extracellular solution.
Currents were recorded at room temperature (21-23° C.) using the IonWorks planar array electrophysiology technology (Molecular Devices Corp.). Stimulation protocols and data acquisition were carried out using a microcomputer (Dell Pentium 4). In order to determine planar electrode hole resistances (Rp), a 10 mV, 160 ms potential difference was applied across each hole. These measurements were performed before cell addition. After cell addition a seal test was performed prior to antibiotic (amphotericin) circulation to achieve intracellular access. Leak subtraction was conducted in all experiments by applying a 160 ms hyperpolarizing (10 mV) prepulse 200 ms before the test pulses to measure leak conductance. Test pulses stepping from the holding potential (VH) of −90 mV to +10 mV were applied for 20 ms and repeated 10 times at a frequency of 10 Hz. In all experiments, the test pulse protocol was performed in the absence (pre-read) and presence (post-read) of a compound. Pre- and post-reads were separated by a compound addition followed by a 3-3.5 min incubation. […]

T1 sequence (Q00975 whole entry): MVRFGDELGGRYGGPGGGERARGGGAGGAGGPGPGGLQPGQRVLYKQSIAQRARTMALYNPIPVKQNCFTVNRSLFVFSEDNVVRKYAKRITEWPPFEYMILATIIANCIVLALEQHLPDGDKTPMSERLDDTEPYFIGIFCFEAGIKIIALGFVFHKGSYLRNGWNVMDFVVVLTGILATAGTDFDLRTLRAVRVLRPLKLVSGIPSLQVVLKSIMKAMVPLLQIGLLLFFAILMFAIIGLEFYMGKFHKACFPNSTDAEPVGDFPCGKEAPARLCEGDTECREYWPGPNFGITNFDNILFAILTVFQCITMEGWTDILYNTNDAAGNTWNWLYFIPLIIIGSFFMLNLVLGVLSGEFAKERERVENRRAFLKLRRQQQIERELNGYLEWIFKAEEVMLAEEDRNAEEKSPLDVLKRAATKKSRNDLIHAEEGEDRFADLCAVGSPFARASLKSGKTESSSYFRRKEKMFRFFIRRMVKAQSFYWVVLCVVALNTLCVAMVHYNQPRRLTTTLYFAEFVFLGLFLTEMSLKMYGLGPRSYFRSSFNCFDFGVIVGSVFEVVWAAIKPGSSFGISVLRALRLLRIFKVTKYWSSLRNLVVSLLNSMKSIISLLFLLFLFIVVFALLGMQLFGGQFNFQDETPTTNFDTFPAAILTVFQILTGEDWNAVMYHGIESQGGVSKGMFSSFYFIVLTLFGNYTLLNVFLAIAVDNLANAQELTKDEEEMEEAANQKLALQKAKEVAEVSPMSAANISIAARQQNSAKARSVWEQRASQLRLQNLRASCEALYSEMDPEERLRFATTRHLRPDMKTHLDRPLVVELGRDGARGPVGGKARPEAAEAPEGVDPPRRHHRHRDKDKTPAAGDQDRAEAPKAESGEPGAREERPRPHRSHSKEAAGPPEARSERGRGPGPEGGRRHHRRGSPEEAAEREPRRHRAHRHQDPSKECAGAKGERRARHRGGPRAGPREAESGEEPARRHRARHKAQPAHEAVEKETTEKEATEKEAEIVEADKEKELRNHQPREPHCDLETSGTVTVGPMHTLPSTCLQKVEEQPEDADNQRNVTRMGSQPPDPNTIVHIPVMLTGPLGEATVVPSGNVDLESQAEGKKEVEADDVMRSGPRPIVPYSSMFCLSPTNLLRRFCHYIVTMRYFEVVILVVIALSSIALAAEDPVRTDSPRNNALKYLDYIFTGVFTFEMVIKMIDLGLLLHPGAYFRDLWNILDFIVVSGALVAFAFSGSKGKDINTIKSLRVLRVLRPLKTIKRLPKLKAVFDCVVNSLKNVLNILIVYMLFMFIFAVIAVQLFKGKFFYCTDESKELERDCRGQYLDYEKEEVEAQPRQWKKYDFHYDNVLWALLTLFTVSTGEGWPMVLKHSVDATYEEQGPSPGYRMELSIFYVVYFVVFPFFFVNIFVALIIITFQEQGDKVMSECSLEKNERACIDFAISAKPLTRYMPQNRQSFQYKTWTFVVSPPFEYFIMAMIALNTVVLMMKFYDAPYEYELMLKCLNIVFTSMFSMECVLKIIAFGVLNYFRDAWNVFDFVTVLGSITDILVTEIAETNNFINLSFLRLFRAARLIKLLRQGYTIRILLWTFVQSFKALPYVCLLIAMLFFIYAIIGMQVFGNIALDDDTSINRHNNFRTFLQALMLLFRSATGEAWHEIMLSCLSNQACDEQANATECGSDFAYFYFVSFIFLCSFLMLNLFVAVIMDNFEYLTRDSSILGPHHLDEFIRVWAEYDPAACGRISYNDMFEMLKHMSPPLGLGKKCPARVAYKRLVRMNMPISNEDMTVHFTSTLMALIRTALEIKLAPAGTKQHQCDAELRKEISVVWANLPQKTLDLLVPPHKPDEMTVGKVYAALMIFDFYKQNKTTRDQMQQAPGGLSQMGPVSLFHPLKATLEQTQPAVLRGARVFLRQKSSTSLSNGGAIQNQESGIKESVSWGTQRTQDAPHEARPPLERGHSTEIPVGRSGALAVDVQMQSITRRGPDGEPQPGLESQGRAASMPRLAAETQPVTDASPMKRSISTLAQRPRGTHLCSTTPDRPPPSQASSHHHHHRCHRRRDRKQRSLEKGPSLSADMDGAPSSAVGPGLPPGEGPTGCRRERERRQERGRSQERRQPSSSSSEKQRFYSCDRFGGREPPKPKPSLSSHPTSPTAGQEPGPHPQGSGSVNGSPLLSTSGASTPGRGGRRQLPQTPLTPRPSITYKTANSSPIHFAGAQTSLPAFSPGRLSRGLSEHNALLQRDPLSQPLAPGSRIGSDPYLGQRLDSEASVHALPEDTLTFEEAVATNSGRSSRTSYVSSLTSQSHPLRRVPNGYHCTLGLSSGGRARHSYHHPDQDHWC
T1 sequence (P54284 whole entry partner): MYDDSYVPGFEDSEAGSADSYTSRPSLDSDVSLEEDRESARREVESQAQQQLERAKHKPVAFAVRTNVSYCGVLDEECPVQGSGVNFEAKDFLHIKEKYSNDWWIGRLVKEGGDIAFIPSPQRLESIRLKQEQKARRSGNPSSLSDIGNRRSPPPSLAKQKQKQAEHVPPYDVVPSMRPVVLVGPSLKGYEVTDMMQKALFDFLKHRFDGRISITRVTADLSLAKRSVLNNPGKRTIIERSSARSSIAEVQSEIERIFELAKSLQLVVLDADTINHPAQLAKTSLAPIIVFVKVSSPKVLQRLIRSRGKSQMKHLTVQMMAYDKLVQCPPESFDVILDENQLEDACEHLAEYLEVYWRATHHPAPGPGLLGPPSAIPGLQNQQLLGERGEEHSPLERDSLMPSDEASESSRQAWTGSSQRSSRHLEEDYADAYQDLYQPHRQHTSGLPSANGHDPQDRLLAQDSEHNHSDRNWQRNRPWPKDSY
T1 sequence (P54289 25-956 partner): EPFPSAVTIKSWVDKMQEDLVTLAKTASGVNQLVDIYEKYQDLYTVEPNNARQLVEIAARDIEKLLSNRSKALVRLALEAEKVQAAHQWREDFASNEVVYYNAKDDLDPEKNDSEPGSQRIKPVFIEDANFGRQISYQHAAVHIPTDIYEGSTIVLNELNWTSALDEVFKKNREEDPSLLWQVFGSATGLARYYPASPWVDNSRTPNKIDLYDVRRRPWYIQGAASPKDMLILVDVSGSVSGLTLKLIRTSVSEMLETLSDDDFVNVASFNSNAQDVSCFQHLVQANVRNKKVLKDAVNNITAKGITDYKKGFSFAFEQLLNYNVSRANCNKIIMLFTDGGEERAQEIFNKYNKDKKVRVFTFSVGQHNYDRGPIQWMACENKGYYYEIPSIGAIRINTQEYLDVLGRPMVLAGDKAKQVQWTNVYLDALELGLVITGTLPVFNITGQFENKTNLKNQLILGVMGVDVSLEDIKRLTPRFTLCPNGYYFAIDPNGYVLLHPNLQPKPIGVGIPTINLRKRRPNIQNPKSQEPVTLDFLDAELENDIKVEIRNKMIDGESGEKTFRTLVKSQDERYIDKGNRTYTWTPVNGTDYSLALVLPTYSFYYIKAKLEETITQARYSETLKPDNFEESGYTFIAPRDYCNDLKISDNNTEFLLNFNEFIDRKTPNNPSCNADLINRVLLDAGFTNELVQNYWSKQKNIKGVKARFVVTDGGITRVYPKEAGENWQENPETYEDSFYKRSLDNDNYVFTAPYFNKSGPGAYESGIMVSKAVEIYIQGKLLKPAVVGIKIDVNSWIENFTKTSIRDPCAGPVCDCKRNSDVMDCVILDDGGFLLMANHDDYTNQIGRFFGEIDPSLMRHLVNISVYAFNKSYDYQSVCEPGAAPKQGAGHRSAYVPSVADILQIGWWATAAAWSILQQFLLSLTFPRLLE
T1 sequence (P54289 957-1103 partner): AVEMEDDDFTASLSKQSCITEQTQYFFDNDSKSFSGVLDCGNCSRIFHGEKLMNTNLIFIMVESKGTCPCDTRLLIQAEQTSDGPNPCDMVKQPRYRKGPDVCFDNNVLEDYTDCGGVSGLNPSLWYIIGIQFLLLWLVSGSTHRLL

IC50 [µM] | Structure (SMILES)
≥ 31.6 | Cc1cccnc1C(=O)N1CCN(S(=O)(=O)c2ccc(C(F)(F)F)cc2)C[C@@H]1C [Example 1, (2S)-2-Methyl-1-[(3-methyl-2-pyridinyl)carbonyl]-4-{[4-(trifluoromethyl)phenyl]sulfonyl}piperazine hydrochloride]
≥ 31.6 | Cc1cccc(C(=O)N2CCN(S(=O)(=O)c3ccc(C(F)(F)F)cc3)CC2)n1 [Example 2, 1-[(6-Methyl-2-pyridinyl)carbonyl]-4-{[4-(trifluoromethyl)phenyl]sulfonyl}piperazine]
≥ 31.6 | Cc1cccnc1C(=O)N1CCN(S(=O)(=O)c2ccc(C(F)(F)F)cc2)CC1 [Example 3, 1-[(3-Methyl-2-pyridinyl)carbonyl]-4-{[4-(trifluoromethyl)phenyl]sulfonyl}piperazine]
≥ 31.6 | O=C(c1cc(-c2ccccn2)ccn1)N1CCN(S(=O)(=O)c2ccc(C(F)(F)F)cc2)CC1 [Example 5, 2′-[(4-{[4-(Trifluoromethyl)phenyl]sulfonyl}-1-piperazinyl)carbonyl]-2,4′-bipyridine]
≥ 31.6 | O=C(c1ccc(-c2ccccn2)cn1)N1CCN(S(=O)(=O)c2ccc(C(F)(F)F)cc2)CC1 [Example 7, 6′[(4-{[4-(Trifluoromethyl)phenyl]sulfonyl}-1-piperazinyl)carbonyl]-2,3′-bipyridine]
≥ 31.6 | O=C(c1ccncc1)N1CCN(S(=O)(=O)c2ccc(C(F)(F)F)cc2)CC1 [Example 8, 1-(4-Pyridinylcarbonyl)-4-{[4-(trifluoromethyl)phenyl]sulfonyl}piperazine]
≥ 31.6 | Cc1cc(C(=O)N2CCN(S(=O)(=O)c3ccc(C(F)(F)F)cc3)CC2)ccn1 [Example 9, 1-[(2-Methyl-4-pyridinyl)carbonyl]-4-{[4-(trifluoromethyl)phenyl]sulfonyl}piperazine]
≥ 31.6 | Cc1cc(C(=O)N2CCN(S(=O)(=O)c3ccc(C(F)(F)F)cc3)C[C@@H]2C)ccn1 [Example 10, (2S)-2-methyl-1-[(2-methyl-4-pyridinyl)carbonyl]-4-{[4-(trifluoromethyl)phenyl]sulfonyl}piperazine formic acid salt (1:1)]

More lines, now with the values behind:

Structure (SMILES) | IC50 [µM]
C[C@H]1CN(S(=O)(=O)c2ccc(C(F)(F)F)cc2)CCN1C(=O)c1ccccn1 [Example 4, (2S)-2-methyl-1-(2-pyridinylcarbonyl)-4-{[4-(trifluoromethyl)phenyl]sulfonyl}piperazine formic acid salt (1:1)] | ≥ 31.6
C[C@H]1CN(C(=O)c2ccccn2)CCN1S(=O)(=O)c1ccc(Cl)cc1 [Example 6, (2S)-1-[(4-Chlorophenyl)sulfonyl]-2-methyl-4-(2-pyridinylcarbonyl)piperazine hydrochloride] | ≥ 31.6
C[C@@H]1CN(S(=O)(=O)c2ccc(Cl)cc2)CCN1C(=O)c1ccccn1 [Example 11, (2R)-4-[(4-chlorophenyl)sulfonyl]-2-methyl-1-(2-pyridinylcarbonyl)piperazine] | ≥ 31.6
C[C@H]1CN(S(=O)(=O)c2ccc(C#N)cc2)CCN1C(=O)c1ccccn1 [Example 12, 4-{[(3S)-3-methyl-4-(2-pyridinylcarbonyl)-1-piperazinyl]sulfonyl}benzonitrile] | ≥ 31.6
Cc1cccnc1C(=O)N1CCN(S(=O)(=O)c2ccc(C(F)(F)F)cc2)[C@H](C)C1 [Example 13, (2R)-2-methyl-4-[(3-methyl-2-pyridinyl)carbonyl]-1-{[4-(trifluoromethyl)phenyl]sulfonyl}piperazine] | ≥ 31.6
Cc1cccnc1C(=O)N1CCN(S(=O)(=O)c2ccc(C(F)(F)F)cc2)[C@@H](C)C1 [Example 14, (2S)-2-methyl-4-[(3-methyl-2-pyridinyl)carbonyl]-1-{[4-(trifluoromethyl)phenyl]sulfonyl}piperazine] | ≥ 31.6
Cc1cc(C(=O)N2CCN(S(=O)(=O)c3ccc(C#N)cc3)C[C@@H]2C)ccn1 [Example 15, 4-({(3S)-3-methyl-4-[(2-methyl-4-pyridinyl)carbonyl]-1-piperazinyl}sulfonyl)benzonitrile] | ≥ 31.6
